Entries after “also recorded” stand apart in the source; their conditions may differ.
How the values were obtained:
[1] = system: bak; assay: EPO induced gene expression in PC12 cells (quantitative RT-PCR); type: cell-based, rat; details: PC-12 cells
Experimental: (§1) PC-12 cells (from a rat Pheochromocytoma) were cultured on poly-D-Lysine coated tissue culture plastic in DMEM containing 10% FBS and 5% Horse serum. To induce the neuronal phenotype in PC-12 cells, serum was removed and the cells were treated with NGF (50 ng/ml). Cells were grown for 7 days in the presence of the NGF then used for experiments.
(§2) PC-12 cells were cultured as described in Example 1 in a 10 cm poly-D-lysine coated tissue culture dish. Cells were incubated in the presence of 1 U/ml of EPO for 24 hr. Total RNAn was then isolated using a Qiagen RNAeasy mini prep kit and used for RT-PCR.
(§3) Real time reverse transcription and PCR were performed in a single reaction using a light cycler and an RNA amplification kit from Roche Molecular Biochemicals. RNA was quantitated and added in equal amounts to reaction mix that includes the dsDNA specific dye SYBR green I. Specific PCR reaction products are quantitated by detecting the amount of fluorescence in the reaction at each PCR cycle. Final analysis was performed using the data analysis software included with the light cycler instrument.

[2] = system: bclXL; assay: as above; type: cell-based, rat; details: PC-12 cells
Experimental: as §1, §2, §3

[3] = system: PC-12 cells; assay: NGF withdrawal in PC-12 cells; type: cell-based, rat; details: for protection against NGF withdrawal-induced cell death (in words): treated 24 hr before NGF removal, viable cells at 12, 24, 48, 72 hr
Experimental: as §1
PC-12 cells were cultured as described above in a 96 well poly-d-lysine coated multi-well plate and treated with rhEPO (1 pm to 10 nm) for 24 hr prior to NGF withdrawal. On the day of the experiment the cells were washed with buffer 3 times to remove NGF and then cultured in fresh media without NGF. Immediately following NGF washout cells were counted (t=0) to determine the number of living cells. Cell viability was based on morphological characteristics including phase brightness, presence of axons, and absence of blebbing. Cell counts were performed at 12 hr, 24 hr, 48 hr and 72 hr and the number of viable cells were scored.

[4] = system: spontaneous hypertensive rats rendered ischemic; assay: Experimental model of cerebral ischemia (tandem CCA/MCA occlusion), infarct volume; type: in vivo, rat
Experimental: Male spontaneous hypertensive rats (Charles River) weighing between 250–300 g were weighed and then anesthetized with ketamine (100 mg/ml)/xylazine (20 mg/ml) cocktail (1.2 ml/kg; i.p.). The level of anesthetic was assessed by corneal reflex (air puff to eye) and leg jerk in response to tail or foot pinch. Once the rat was anesthetized, it was placed on a small animal surgical board and restrained during the surgical procedure. The rat's body temperature was monitored continuously with a rectal probe and maintained at 37° C. with a homeostatic heating pad.
Rats were rendered ischemic by tandem occlusion of the left common carotid artery and the left middle cerebral artery for 2 h followed by 22 h of reperfusion using a modification of the technique described by Brint and co-workers (J. Cereb Blood Flow Metab 8:474–485, 1988). Specifically, the left CCA was isolated through an incision in the ventral surface of the neck. For isolation of the ipsilateral MCA, a second incision was made between the lateral canthus of the left eye and the corresponding external auditory canal to bare the underlying skull. […]
Twenty-hours prior to the onset of ischemia, an osmotic mini-pump (Model 1003D; Alza) filled with vehicle or EPO was placed between the scapula of the rat. […] Twenty-two hours later, the rats were evaluated for behavioral performance, a blood sample was collected for terminal plasma levels of EPO and then the rat was euthanized, brain removed, sectioned and stained for histological analysis.
(§4) On Day One, the rats were rendered ischemic as described above. […] Twenty-two hours later, the rats were evaluated for behavioral performance, a blood sample was collected for terminal plasma levels of EPO and then the rat was euthanized, brain removed, sectioned and stained for histological analysis.
as §4, with “analysis. […]” for “analysis.”

[5] = Plasma determinations (EPO ELISA) in ischemia studies; type: in vivo, rat
From the text: Plasma Determinations: Blood samples were collected from each rat via the orbital sinus at the time of sacrifice. Plasma was separated out, frozen and analyzed by EPO ELISA for determination of plasma concentration (U/ml).

[6] = 1 nm EPO for 24 hr (FIG. 3 legend)

## EPO: purified, recombinant human EPO (rhEPO), formulated and distributed under the trademarks EPREX, ERYPO or PROCRIT
[1]; [6]
  decrease in the expression of the pro-apoptotic Bak: greater than 5 fold
[1]; EPO 1 U/ml for 24 hr
  decrease in the expression of the pro-apoptotic gene, bak: 5 fold
[2]; [6]
  increase in the expression of the anti-apoptotic gene, bclXL: 6 fold
[2]; EPO 1 U/ml for 24 hr
  increase in the expression of the anti-apoptotic gene, bclXL: 6 fold
[3]; growth factor withdrawal
  optimum / peak concentration for the neuroprotective effect: 10 pm
[3]; growth factor withdrawal, 1 nm
  neuroprotective effect at 1 nm: no significant effect
[3]; growth factor withdrawal, protection decreasing above 10 pm
  dose response curve for the neuroprotective effect: bi-phasic
[3]
  protection against NGF withdrawal-induced cell death (in words): significant decrease in cell death; also recorded: increased the number of viable cells at each time point
[3]; listed as rhEPO
  protection against NGF withdrawal-induced cell death (in words): protects rat PC12 cells against NGF withdrawal-induced cell death
[4]; Study I: 132 or 1321 U/day continuous iv infusion via osmotic mini-pump, started before ischemia
  infarct volume / protection against ischemic injury: significantly reduced infarct volume; also recorded: protects against ischemic injury
[4]; Study II: single iv bolus 15 min post-occlusion, 1000, 2500 or 5000 U/kg
  protection against ischemic damage: did not protect against ischemic damage; also recorded: does not protect against ischemic injury
[4]; Study III: repeat iv bolus 2500 U/kg at 15 min, 2 h, 4 h and 6 h post-occlusion
  infarct volume / protection against ischemic injury: significant decrease in infarct volume; also recorded: protects against ischemic injury
[5]; Study I, continuous infusion
  plasma concentrations (terminal): correlated with the protective effect
[5]; Study II, single iv bolus 1000, 2500 or 5000 U/kg
  plasma concentrations (terminal): low
